Source: patent publication US8178506B2, “Oligomeric compounds and compositions for use in modulation of small non-coding RNAs” (Regulus Therapeutics Inc., priority 2003, dated 2012)

Tested on: A549 cells
Test: Cell cycle assay in A549 cells
Assay type: cell-based, human
Conditions: A549 cells, 24 hours, relative to the untreated control cells in that phase
How it was run: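 A549 cells treated with 25, 50, 100 or 150 nM miRNA-targeting oligomeric compounds, random-mer as negative control. Flow cytometry cell cycle profiling 24 h after treatment; data as percentage of cells per phase relative to untreated control cells.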

## 340350 (antisense TGCTCAATAAATACCCGTTGAA; all 2'-MOE, all phosphorothioate, methylation of C not given here) [compound 340350]
25 nM
  % cells in cell cycle phase: G1: 102%
  % cells in cell cycle phase: G2/M: 95%
  % cells in cell cycle phase: S: 100%
  % cells in cell cycle phase: aneuploid: 120%
  % cells in cell cycle phase: subG1: 91%
50 nM
  % cells in cell cycle phase: G1: 128%
  % cells in cell cycle phase: G2/M: 126%
  % cells in cell cycle phase: S: 67%
  % cells in cell cycle phase: aneuploid: 80%
  % cells in cell cycle phase: subG1: 158%
100 nM
  % cells in cell cycle phase: G1: 125%
  % cells in cell cycle phase: G2/M: 155%
  % cells in cell cycle phase: S: 60%
  % cells in cell cycle phase: aneuploid: 107%
  % cells in cell cycle phase: subG1: 267%
150 nM
  % cells in cell cycle phase: G1: 128%
  % cells in cell cycle phase: G2/M: 211%
  % cells in cell cycle phase: S: 40%
  % cells in cell cycle phase: aneuploid: 108%
  % cells in cell cycle phase: subG1: 402%
